In the first assay the target is T1, PYL4 (Arabidopsis thaliana, UniProt O80920).
T1 construct: 6X-His; made in house; host or cells: E. coli BL21[DE3]pLysS
T1 sequence (O80920 1-207): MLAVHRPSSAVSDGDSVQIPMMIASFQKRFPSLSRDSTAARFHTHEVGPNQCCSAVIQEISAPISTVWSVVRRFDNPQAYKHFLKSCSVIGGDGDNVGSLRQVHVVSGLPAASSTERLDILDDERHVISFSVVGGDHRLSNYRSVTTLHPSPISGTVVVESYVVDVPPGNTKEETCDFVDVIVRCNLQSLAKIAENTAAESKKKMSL
T1 sequence (Q9CAJ0 23-511 partner): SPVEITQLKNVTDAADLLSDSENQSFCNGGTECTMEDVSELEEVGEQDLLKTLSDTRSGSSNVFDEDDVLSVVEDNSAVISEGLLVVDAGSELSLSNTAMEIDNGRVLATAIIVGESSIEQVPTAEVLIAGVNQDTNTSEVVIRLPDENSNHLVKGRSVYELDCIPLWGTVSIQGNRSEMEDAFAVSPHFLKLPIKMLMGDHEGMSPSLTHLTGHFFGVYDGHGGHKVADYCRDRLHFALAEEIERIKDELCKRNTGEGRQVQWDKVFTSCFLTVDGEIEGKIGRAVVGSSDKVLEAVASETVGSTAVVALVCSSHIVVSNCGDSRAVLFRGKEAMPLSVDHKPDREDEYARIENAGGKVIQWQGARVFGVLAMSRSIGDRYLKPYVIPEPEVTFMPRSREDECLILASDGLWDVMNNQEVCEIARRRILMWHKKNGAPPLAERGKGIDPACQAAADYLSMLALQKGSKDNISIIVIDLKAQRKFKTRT
Description: receptor-mediated PP2C (HAB1) inhibition in vitro assay. Format: biochemical. The conditions noted are these: compound at 25 μM; control without agonist = 100%. As to the method: (§1) A family of 62 structurally related N-acyl sulfonamides (Tables I-V) were tested for ABA agonist activity using multiple receptor-mediated PP2C inhibition in vitro assays (Park et al., 2009). […] The constructs utilized for protein expression have been previously described (Okamoto et al. 2013). For constructs encoding 6X-His-fusion proteins (all receptors except PYL11), the coding sequences were of the receptors were cloned in the vector pET28, expressed in BL21[DE3]pLysS E. coli host cells at 18° C. overnight, and subsequently purified from sonicated lysates using Ni-NTA agarose (Qiagen, USA), according to the manufacturer's instructions. PYL11 was constructed as a maltose binding protein fusion in the vector pMAL-c, expressed in BL21┌DE3┐pLysS host cells and purified using amylose resin (New England Biolabs) as described by the manufacturer. Recombinant GST-HAB1 was expressed and purified as described previously (Park et al., 2009). PP2C activity assays were conducted using the fluorogenic phosphatase substrate 4-methylumbelliferyl-phosphate. Recombinant receptors and HAB1 were used to examine ligand-induced PP2C inactivation in response to multiple test compounds. Enzyme inhibition assays were conducted using the following assay conditions: 50 nM GST-PP2C, 100 mM Tris-OAc (pH 7.9), 100 mM NaCl, 1 mM MnCl2, 1% β-mercaptoethanol. […] Because of this, the ratio of each receptor used in the PP2C-inhibitions assays was established empirically as the minimum fold-excess of receptor required to elicit maximal PP2C inhibition at a saturating ABA concentration (10 μM).
(§2) Based on this criterion, we used a ratio of 2:1 receptor in the assays described herein.
(§3) Using the above assay conditions, compounds were tested at 25 μM for agonist activity on PYL4, PYL5, PYL8 and PYL9. […] Consequently, a subset of the compounds was tested at multiple concentrations against 11 receptors so that IC50 values and receptor selectivity profiles could be examined. […] Thus, the N-acylsulfonamide agonists disclosed are selective for monomeric receptors.
(§4) Additional compounds were tested for biological activity following the procedures of Example 1 with minor modifications.
(§5) For these in vitro receptor assays, the compounds listed were tested in in vitro PP2C inhibition assays with 50 uM of the test compound except for ABA (10 uM). IC50s were calculated from dose curves, but only for selected compounds.
Molecule `Cc1ccc(C(C)(C)C(=O)NS(=O)(=O)Cc2ccc(C#N)cc2)cc1` [Compound 12] returned a PP2C Activity (25 μm) PYL4 of 92%.
`N#Cc1ccc(CS(=O)(=O)NC(=O)C2(c3cccc(F)c3)CC2)cc1` [Compound 46] had a remaining activity at 25 µM of 95%.

The next assay has as its target T2, PYL8 (Arabidopsis thaliana, UniProt Q9FGM1).
T2 construct: 6X-His; made in house; host or cells: E. coli BL21[DE3]pLysS
T2 sequence (Q9FGM1 1-188): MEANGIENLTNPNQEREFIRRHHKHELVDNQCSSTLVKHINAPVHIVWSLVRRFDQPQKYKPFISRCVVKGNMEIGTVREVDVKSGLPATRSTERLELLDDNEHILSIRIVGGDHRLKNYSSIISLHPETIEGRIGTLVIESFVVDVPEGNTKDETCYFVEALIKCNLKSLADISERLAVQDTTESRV
T2 sequence (Q9CAJ0 23-511 partner): T1 sequence (Q9CAJ0 23-511 partner)
The assay is described as above. Format: biochemical. The following applies: Table VII; read-out: PP2C Dose Curves PYL8 (IC50). As to the method: as §1, §2, §3, §4, §5
In general, IC50 refers to the concentration that gives 50% inhibition. In the case of `N#Cc1ccc(CS(=O)(=O)NC(=O)C2(c3cccc(F)c3)CC2)cc1` [Compound 46], the IC50 is 111 µM.

Staying with this assay, now noted: compound at 25 μM; control without agonist = 100%.
`Cc1ccc(C(C)(C)C(=O)NS(=O)(=O)Cc2ccc(C#N)cc2)cc1` [Compound 12] showed a PP2C Activity (25 μm) PYL8 of 62%.
In the case of `N#Cc1ccc(CS(=O)(=O)NC(=O)C2(c3cccc(F)c3)CC2)cc1` [Compound 46], the remaining activity at 25 µM was determined as 73%.

The next assay deals with T3, PYL9 (Arabidopsis thaliana, UniProt Q84MC7).
T3 construct: 6X-His; made in house; host or cells: E. coli BL21[DE3]pLysS
T3 sequence (Q84MC7 1-187): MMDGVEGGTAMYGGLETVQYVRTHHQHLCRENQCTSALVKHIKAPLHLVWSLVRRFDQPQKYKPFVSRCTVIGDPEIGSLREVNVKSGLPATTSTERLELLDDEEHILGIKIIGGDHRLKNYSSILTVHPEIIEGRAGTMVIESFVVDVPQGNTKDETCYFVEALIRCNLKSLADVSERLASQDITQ
T3 sequence (Q9CAJ0 23-511 partner): T1 sequence (Q9CAJ0 23-511 partner)
The assay is described as above. Format: biochemical. The following applies: Table VII; read-out: PP2C Dose Curves PYL9 (IC50). The protocol: as §1, §2, §3, §4, §5
As to `N#Cc1ccc(CS(=O)(=O)NC(=O)C2(c3cccc(F)c3)CC2)cc1` [Compound 46], the IC50 came to 39.6 µM.

Still in this assay, the particulars now being: compound at 25 μM; control without agonist = 100%.
Regarding `Cc1ccc(C(C)(C)C(=O)NS(=O)(=O)Cc2ccc(C#N)cc2)cc1` [Compound 12], the PP2C Activity (25 μm) PYL9 is 47%.
Turning to `N#Cc1ccc(CS(=O)(=O)NC(=O)C2(c3cccc(F)c3)CC2)cc1` [Compound 46], the remaining activity at 25 µM worked out at 55%.

Another assay deals with T4, PYL5 (Arabidopsis thaliana, UniProt Q9FLB1).
T4 construct: 6X-His; made in house; host or cells: E. coli BL21[DE3]pLysS
T4 sequence (Q9FLB1 1-203): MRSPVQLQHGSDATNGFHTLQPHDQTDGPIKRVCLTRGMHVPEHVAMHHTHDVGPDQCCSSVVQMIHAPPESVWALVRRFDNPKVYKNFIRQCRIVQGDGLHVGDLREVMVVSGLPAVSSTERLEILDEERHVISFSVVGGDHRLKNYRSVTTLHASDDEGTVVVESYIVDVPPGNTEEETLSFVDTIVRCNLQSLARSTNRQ
T4 sequence (Q9CAJ0 23-511 partner): T1 sequence (Q9CAJ0 23-511 partner)
The description is as above. Format: biochemical. The conditions noted are these: Table VII; read-out: PP2C Dose Curves PYL5 (IC50). As to the method:
as §1, §2, §3, §4, §5
For `N#Cc1ccc(CS(=O)(=O)NC(=O)C2(c3cccc(F)c3)CC2)cc1` [Compound 46], the IC50 amounted to 7.06 µM.

Staying with this assay, now noted: compound at 25 μM; control without agonist = 100%.
`Cc1ccc(C(C)(C)C(=O)NS(=O)(=O)Cc2ccc(C#N)cc2)cc1` [Compound 12] had a PP2C Activity (25 μm) PYL5 of 43%.
The molecule `N#Cc1ccc(CS(=O)(=O)NC(=O)C2(c3cccc(F)c3)CC2)cc1` [Compound 46] gave a remaining activity at 25 µM of 24%.

The target in another assay is T5, PYL11 (Arabidopsis thaliana, UniProt Q9FJ50).
T5 construct: made in house; host or cells: E. coli BL21[DE3]pLysS
T5 sequence (Q9FJ50 1-161): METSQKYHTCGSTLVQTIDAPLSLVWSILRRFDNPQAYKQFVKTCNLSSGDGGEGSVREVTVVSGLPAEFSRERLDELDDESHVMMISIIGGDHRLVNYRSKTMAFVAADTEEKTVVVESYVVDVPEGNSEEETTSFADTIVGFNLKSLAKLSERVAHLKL
T5 sequence (Q9CAJ0 23-511 partner): T1 sequence (Q9CAJ0 23-511 partner)
The assay is described as above. Format: biochemical. The conditions noted are these: Table VII; read-out: PP2C Dose Curves PYL11 (IC50). The protocol:
as §1, §2, §3, §4, §5
Consider `N#Cc1ccc(CS(=O)(=O)NC(=O)C2(c3cccc(F)c3)CC2)cc1` [Compound 46], for which the IC50 worked out at 18.5 µM.

The next assay deals with T6, PYL6 (Arabidopsis thaliana, UniProt Q8S8E3).
T6 construct: 6X-His; made in house; host or cells: E. coli BL21[DE3]pLysS
T6 sequence (Q8S8E3 1-215): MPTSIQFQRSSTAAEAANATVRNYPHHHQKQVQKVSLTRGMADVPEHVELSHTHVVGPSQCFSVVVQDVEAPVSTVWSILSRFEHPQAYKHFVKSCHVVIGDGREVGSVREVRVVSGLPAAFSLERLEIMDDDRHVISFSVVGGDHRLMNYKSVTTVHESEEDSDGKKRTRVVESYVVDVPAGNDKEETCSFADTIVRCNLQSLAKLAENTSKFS
T6 sequence (Q9CAJ0 23-511 partner): T1 sequence (Q9CAJ0 23-511 partner)
The description is as above. It counts as biochemical. The conditions noted are these: Table VII; read-out: PP2C Dose Curves PYL6 (IC50). As to the method: as §1, §2, §3, §4, §5
In the case of `N#Cc1ccc(CS(=O)(=O)NC(=O)C2(c3cccc(F)c3)CC2)cc1` [Compound 46], the concentration for half-maximal inhibition (IC50) turned out to be 15.3 µM.

Another assay relates to Arabidopsis seed germination and hypocotyl growth. Description: Arabidopsis seed germination and hypocotyl growth. It counts as in vivo. The following applies: Germination Inhibition II; tested at 10 and 50 uM; lowest concentration that inhibited hypocotyl growth in wells where seeds germinated; − = none. As to the method:
We germinated seeds from wild type on ½× strength Murashige and Skoog salts growth medium containing either 10 or 50 μM for all 62 compounds as well as 1 μM (+)-ABA and mock controls. […] To investigate if the any of the compounds are sufficient to control vegetative ABA responses, we treated three week old Arabidopsis plants with aqueous solutions containing 0.02% Silwet and either 50 μM of selected N-acylsulfonamides, 50 μM ABA or 0.1% DMSO (the carrier solvent for the compounds tested). The leaf temperatures were subsequently examined using a thermal imaging camera 24 hours after treatment. It is well known that ABA-induced guard cell closure reduces transpiration, which leads to increases in leaf temperatures. It has been estimated that a 1° C. increase in leaf temperature correlates with a decrease in transpiration rates by approximately 50% (Sirault et al., 2009). Since guard cell aperture is the primary determinant of transpiration rates, thermal imaging is a useful way to indirectly infer relative transpiration rates and, indirectly, relative degrees of guard cell opening at the whole plant level.
as §4
For the germination inhibition experiment, the compounds were tested at 10 and 50 uM. The amounts shown are the lowest of the two concentrations that either inhibited germination or hypocotyl growth in wells where seeds germinated.
For the germination test, the compounds were tested at 1, 5, 10, 25 and 50 uM. The amounts shown are the lowest of the concentrations that either inhibited germination or hypocotyl growth in the wells where seeds germinated.
In the case of `Cc1ccc(C(C)(C)C(=O)NS(=O)(=O)Cc2ccc(C#N)cc2)cc1` [Compound 12], the “Hypocotyl Growth Inhibition” value was 50 µM.

The assay is the same for the next values; noted with them: Table VIII; tested at 10 or 50 μM; lowest inhibiting concentration; − = none; read-out: Hypocotyl Growth Inhibition.
Regarding `Cc1ccc(C(C)(C)C(=O)NS(=O)(=O)Cc2ccc(C#N)cc2)cc1` [Compound 12], the minimal effective concentration came to 50 µM.

These data come from patent publication US10757937B2, “Sulfonamides that activate ABA receptors” (The Regents of the University of California, priority 2014, dated 2020).
